We go through 6 compounds from patent US20030185956A1, “Separation method” (priority 2000, published 2003).

In brackets after ≈: the same amount, converted by molar mass.

The nature of series [1]: Separation in model membrane reactor, water to n-decane across cellulose acetate dialysis membrane. The settings on record: for recovered into the decane / amount recovered into the decane: Example 5, after 2.5 days; for recovered into the decane: 20 g macerated grapefruit peel (nootkatone 4.3 mg, limonene 135 mg) in 35 ml water; for amount recovered into the decane: grapefruit peel. The class given is physicochemical. The procedure:
(§1) Separation experiments were carried out in a small model membrane reactor which consisted of an upper and lower chamber separated by 0.002 m^2 of membrane. Thorough mixing was ensured by use of a magnetic stirrer with a separate stirring bar contained within each chamber. Membrane separations were carried out at room temperature (22° C.).
Gas Chromatography (g.c.)
Analysis of valencene, nootkatone, 1,2-epoxyoctane and 1-octene.
Column—SE-30 capillary (Alltech, Carnforth, Lancs, UK), ID 0.32 mm, film thickness 0.25 μm.
Temperature program 200° C. for 5 min. 10° C. min^−1
Injector/detector temperature—300° C.
Carrier gas-helium, head pressure 0.35 bar

A further series in a line: physchem. The settings on record: 25 °C, water.
A short description of series [2]: Selective extraction from water into n-decane in dialysis tubing (shaken flask). The class given is physicochemical. The settings on record: Example 6, 30° C., 45 hours; for amount present in the n-decane phase: 100 mg limonene + 20 mg carvone in 100 ml water, 50 ml n-decane, 150 rpm. The procedure:
Dialysis tubing (cellulose acetate visking tubing MW cut off 12-14,000 Da) containing 50 ml n-decane was added to the flask and the whole incubated at 30° C. with shaking at 150 rpm for 45 hours.

The nature of series [3]: Product recovery from fungal culture broth into solvent in dialysis tubing. The settings on record: for recovered into the n-decane: 72 h incubation, nootkatol and nootkatone approx. 3.3 mg combined, valencene approx. 150 mg. The class given is physicochemical. The procedure: Product recovery experiments were carried out in fungal or bacterial cultures or in suspensions of fungal or bacterial cells. Reaction media contained: unreacted substrate valencene at 0.3-1.4 mg ml^−1 and the reaction products nootkatol and nootkatone in concentrations ranging from 0.02-0.2 mg ml^−1. Nootkatol and nootkatone differ from the substrate valencene by the presence of only a single hydroxyl or a single keto group respectively. [drawing 1]
Dialysis tubing (as described in Example 1) pre-soaked in deionised water, containing n-hexane (50 ml) was added to each of two separate fungal cultures. On addition of hexane filled tubing, reaction mixtures contained the following:
Culture one contained culture broth and biomass (100 ml), residual valencene (approximately 35 mg) and product nootkatone (2.3 mg). Culture two contained culture broth and biomass (100 ml), residual valencene (approximately 33 mg), product nootkatone (3.8 mg), and Tween 80 (trade mark) (1.3 g).
After 48 h extraction time (30° C., shaking at 160 rpm), 96% of nootkatone had been recovered from culture broth one into n-hexane in the dialysis tubing. The remaining nootkatone was detected in the culture broth. Valencene was not detected in the n-hexane extraction solvent. The efficiency of extraction from culture broth two was 68%. The remaining nootkatone was detected in the culture broth. A trace amount of valencene was detected in the extraction solvent.
Dialysis tubing (details described in Example 7) pre-soaked in deionised water, containing n-decane (50 ml) was added to a fungal culture medium containing: culture broth and biomass (100 ml); residual valencene (approximately 150 mg) and the products nootkatol and nootkatone (approx. 3.3 mg combined weight). After 72 h incubation (conditions described in Example 7) 100% of the nootkatol and nootkatone products had been recovered into the n-decane in the dialysis tubing. Valencene was not detected in the n-decane.

The nature of series [4]: Separation in model membrane reactor across Supor membrane. The series is classed as physicochemical. The settings on record: Example 3. As to the method:
as §1

As for `CCCCCCC1CO1` (stereo not shown) [1,2-epoxyoctane], the Rate of flux in series [1] (not told) was 1.45 g h^−1m^−2 for 1,2-epoxyoctane.
In the case of `C=C(C)C1CC=C(C)C(=O)C1` (stereo not shown) [carvone], the solubility in “physchem” was about 600 µg/mL (≈ 3.99 mM). In series [2], the “amount present in the n-decane phase” value is recorded as 8 mg and the “share of amount originally added to the water phase found in n-decane” value was 40%.
Regarding `C=C(C)[C@H]1CC=C(C)CC1` [limonene], in series [2], the “amount present in the n-decane phase” value is 2.0 mg and the “share of amount originally added to the water phase found in n-decane” value is recorded as 2%. Further, in series [1], the “recovered into the decane” value was 5% and the “amount recovered into the decane” value turned out to be 4.6 mg.
In the case of `C=C(C)[C@@H]1CCC2=CC(O)C[C@@H](C)[C@]2(C)C1` (stereo partly shown) [nootkatol], in series [3] (Example 8), the “recovered into the n-decane” value was 100%.
Compound `C=C(C)[C@@H]1CCC2=CC(=O)C[C@@H](C)[C@]2(C)C1` [nootkatone] returned a Rate of flux in series [4] of 0.130 g h^−1m^−2 for nootkatone. Besides, the Rate of flux in series [1] (Example 1, cellulose acetate, thickness 0.05 mm, M.W. cut-off 12-14,000 Da) is given as 0.08 g nootkatone h^−1m^−2. g h^−1m^−2. Besides, in series [1], the “recovered into the decane” value is reported as “component limonene. After 2.5 days, 28%” and the “amount recovered into the decane” value was determined as 1.2 mg. Also, the “recovered from culture broth into n-hexane” value in series [3] (Example 7, culture one (no Tween 80), 48 h, 30° C., 160 rpm) turned out to be 96%. The “efficiency of extraction into n-hexane” value in series [3] (Example 7, culture two (with Tween 80 1.3 g), 48 h, 30° C., 160 rpm) came to 68%. For the same compound, in series [3] (Example 8), the “recovered into the n-decane” value was determined as 100%.
In the case of `C=C(C)[C@@H]1CCC2=CCC[C@@H](C)[C@]2(C)C1` [valencene], in series [3] (Example 7, culture one), the “presence in the n-hexane extraction solvent” value is on record as “not detected”. In series [3] (Example 7, culture two (with Tween 80)), the “presence in the extraction solvent” value is reported as “trace amount”. Moreover, in series [3] (Example 8, 72 h), the “presence in the n-decane” value is “not detected”.
